# Test results published in patent US20160122386A1, “V1A RECEPTOR AGONISTS” (FERRING B.V., priority 2014, published 2016).
# Starred links: 1 amine or outer side, 2 acyl side, 3 side chain; linkers in the order of their positions; H or OH if unused. Positions of bridges follow the written chain, without caps; N, C: chain ends. Non-standard residues stand in square brackets, D forms with d. Residues, ends and D or L forms follow the SMILES beside them. Chains are numbered I, II in the order given. *: point of attachment. isoGln = NC(=O)[C@H](CCC(=O)[*:2])N[*:1]; d(εLys) = N[C@H](CCCCN[*:1])C(=O)[*:2]; X1 = N[C@@H](CCC(=O)[*:2])C(=O)[*:1]; εLys = N[C@@H](CCCCN[*:1])C(=O)[*:2]; Cit = NC(=O)NCCC[C@H](N)C(=O)O; Heptanoyl = CCCCCCC(=O)*; Dab = NCC[C@H](N)C(=O)O; PhAc = O=C(Cc1ccccc1)*; Ava = NCCCCC(=O)O
# Target: T1, human V1aR (Homo sapiens, UniProt P37288)
# T1 construct: expressed in transfected cells
# T1 sequence (P37288 whole entry): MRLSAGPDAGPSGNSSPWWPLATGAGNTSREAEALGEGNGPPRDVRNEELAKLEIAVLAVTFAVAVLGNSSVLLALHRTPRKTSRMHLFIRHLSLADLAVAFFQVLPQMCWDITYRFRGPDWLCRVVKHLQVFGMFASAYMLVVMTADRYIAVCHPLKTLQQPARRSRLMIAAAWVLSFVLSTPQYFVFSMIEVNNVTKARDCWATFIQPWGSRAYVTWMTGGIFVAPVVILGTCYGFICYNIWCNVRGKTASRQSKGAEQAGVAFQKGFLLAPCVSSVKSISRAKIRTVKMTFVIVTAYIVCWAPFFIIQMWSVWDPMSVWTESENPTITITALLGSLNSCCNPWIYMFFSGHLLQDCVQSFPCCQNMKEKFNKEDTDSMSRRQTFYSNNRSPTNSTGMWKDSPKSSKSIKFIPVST
# Assay: Agonist activity at vasopressin V1a receptors, cell-based FLIPR calcium assay
# Settings: for Emax: read-out: Efficacy Avg. (%)
# Method in brief: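 HEK Flp-In cells stably expressing human V1aR were loaded with Calcium 4 dye plus 2.5 mM probenecid for 1 h at 37 °C, then given half-log compound concentrations (final 0.1% DMSO) on FLIPR Tetra.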
SMILES,EC50,Emax
CC[C@H](C)[C@@H]1NC(=O)[C@H](Cc2ccccc2)NC(=O)[C@@H](N)CSSC[C@@H](C(=O)N2CCC[C@H]2C(=O)N[C@@H](CCNC(=O)[C@@H](N)CCCCNC(=O)CC[C@H](NC(=O)[C@H](CCCNC(=N)N)NC(=O)[C@@H]2CCCN2C(=O)[C@H](CCCCN)NC(=O)[C@H](CC(N)=O)NC(=O)[C@H](CCC(N)=O)NC(=O)[C@H](Cc2ccccc2)NC(=O)[C@@H](Cc2ccc(OC)cc2)NC(=O)Cc2ccccc2)C(N)=O)C(=O)NCC(N)=O)NC(=O)[C@H](CC(N)=O)NC(=O)[C@H](CCC(N)=O)NC1=O [Compound 35] (I: H-CFIQNCP[Dab]G-NH2 / II: PhAc-[dY](Me)FQNKPR[isoGln][εLys]; disulfide I:1-I:6; amide I:8-II:C),1.2 nM,43%
CC[C@H](C)[C@@H]1NC(=O)[C@H](Cc2ccccc2)NC(=O)[C@@H](N)CSSC[C@@H](C(=O)N2CCC[C@H]2C(=O)N[C@@H](CCNC(=O)[C@@H](N)CCCCNC(=O)CC[C@H](NC(=O)[C@H](CCCNC(=N)N)NC(=O)[C@@H]2CCCN2C(=O)[C@H](CCCNC(=N)N)NC(=O)[C@H](CC(N)=O)NC(=O)[C@H](CCC(N)=O)NC(=O)[C@@H](NC(=O)[C@@H](Cc2ccc(OC)cc2)NC(=O)Cc2ccccc2)[C@@H](C)CC)C(N)=O)C(=O)NCC(N)=O)NC(=O)[C@H](CC(N)=O)NC(=O)[C@H](CCC(N)=O)NC1=O [Compound 36] (I: H-CFIQNCP[Dab]G-NH2 / II: PhAc-[dY](Me)IQNRPR[isoGln][εLys]; disulfide I:1-I:6; amide I:8-II:C),1.2 nM,46%
CC[C@H](C)[C@@H]1NC(=O)[C@H](Cc2ccccc2)NC(=O)[C@@H](N)CSSC[C@@H](C(=O)N2CCC[C@H]2C(=O)N[C@@H](CCNC(=O)[C@@H](N)CCCCNC(=O)CCCCNC(=O)CC[C@H](NC(=O)[C@H](CCCNC(=N)N)NC(=O)[C@@H]2CCCN2C(=O)[C@H](C)NC(=O)[C@H](CC(N)=O)NC(=O)[C@H](CCC(N)=O)NC(=O)[C@H](Cc2ccccc2)NC(=O)[C@@H](Cc2ccc(OC)cc2)NC(=O)Cc2ccccc2)C(N)=O)C(=O)NCC(N)=O)NC(=O)[C@H](CC(N)=O)NC(=O)[C@H](CCC(N)=O)NC1=O [Compound 37] (I: H-CFIQNCP[Dab]G-NH2 / II: PhAc-[dY](Me)FQNAPR[isoGln][Ava][εLys]; disulfide I:1-I:6; amide I:8-II:C),1.3 nM,44%
CC[C@H](C)[C@@H]1NC(=O)[C@H](Cc2ccccc2)NC(=O)[C@@H](N)CSSC[C@@H](C(=O)N2CCC[C@H]2C(=O)N[C@@H](CCNC(=O)[C@@H](N)CCC(=O)NCCCC[C@H](NC(=O)[C@H](CCCNC(=N)N)NC(=O)[C@@H]2CCCN2C(=O)[C@H](C)NC(=O)[C@H](CC(N)=O)NC(=O)[C@H](CCC(N)=O)NC(=O)[C@H](Cc2ccccc2)NC(=O)[C@@H](Cc2ccc(OC)cc2)NC(=O)Cc2ccccc2)C(N)=O)C(=O)NCC(N)=O)NC(=O)[C@H](CC(N)=O)NC(=O)[C@H](CCC(N)=O)NC1=O [Compound 38] (I: H-CFIQNCP[Dab]G-NH2 / II: PhAc-[dY](Me)FQNAPRK-NH2; disulfide I:1-I:6; linker I:8-II:8 via X1),1.4 nM,46%
CC[C@H](C)[C@@H]1NC(=O)[C@H](Cc2ccccc2)NC(=O)[C@@H](N)CSSC[C@@H](C(=O)N2CCC[C@H]2C(=O)N[C@@H](CCNC(=O)[C@H](N)CCCCNC(=O)CC[C@H](NC(=O)[C@H](CCCNC(=N)N)NC(=O)[C@@H]2CCCN2C(=O)[C@H](C)NC(=O)[C@H](CC(N)=O)NC(=O)[C@H](CCC(N)=O)NC(=O)[C@H](Cc2ccccc2)NC(=O)[C@@H](Cc2ccc(OC)cc2)NC(=O)Cc2ccccc2)C(N)=O)C(=O)NCC(N)=O)NC(=O)[C@H](CC(N)=O)NC(=O)[C@H](CCC(N)=O)NC1=O [Compound 39] (I: H-CFIQNCP[Dab]G-NH2 / II: PhAc-[dY](Me)FQNAPR[isoGln][d(εLys)]; disulfide I:1-I:6; amide I:8-II:C),1.8 nM,48%
CC[C@H](C)[C@@H]1NC(=O)[C@H](Cc2ccccc2)NC(=O)[C@@H](N)CSSC[C@@H](C(=O)N2CCC[C@H]2C(=O)N[C@@H](CCNC(=O)[C@@H](N)CCCCNC(=O)[C@H](CCCCN)NC(=O)CC[C@H](NC(=O)[C@H](CCCNC(=N)N)NC(=O)[C@@H]2CCCN2C(=O)[C@H](C)NC(=O)[C@H](CC(N)=O)NC(=O)[C@H](CCC(N)=O)NC(=O)[C@H](Cc2ccccc2)NC(=O)[C@@H](Cc2ccc(OC)cc2)NC(=O)Cc2ccccc2)C(N)=O)C(=O)NCC(N)=O)NC(=O)[C@H](CC(N)=O)NC(=O)[C@H](CCC(N)=O)NC1=O [Compound 41] (I: H-CFIQNCP[Dab]G-NH2 / II: PhAc-[dY](Me)FQNAPR[isoGln]K[εLys]; disulfide I:1-I:6; amide I:8-II:C),1.2 nM,37%
CCCCCCC(=O)NCCCC[C@H](NC(=O)CC[C@H](NC(=O)[C@H](CCCNC(=N)N)NC(=O)[C@@H]1CCCN1C(=O)[C@H](C)NC(=O)[C@H](CC(N)=O)NC(=O)[C@H](CCC(N)=O)NC(=O)[C@H](Cc1ccccc1)NC(=O)[C@@H](Cc1ccc(OC)cc1)NC(=O)Cc1ccccc1)C(N)=O)C(=O)NCCCC[C@H](N)C(=O)NCC[C@H](NC(=O)[C@@H]1CCCN1C(=O)[C@@H]1CSSC[C@H](N)C(=O)N[C@@H](Cc2ccccc2)C(=O)N[C@@H]([C@@H](C)CC)C(=O)N[C@@H](CCC(N)=O)C(=O)N[C@@H](CC(N)=O)C(=O)N1)C(=O)NCC(N)=O [Compound 43] (I: H-CFIQNCP[Dab]G-NH2 / II: PhAc-[dY](Me)FQNAPR[isoGln]K(Heptanoyl)[εLys]; disulfide I:1-I:6; amide I:8-II:C),1.4 nM,59%
CC[C@H](C)[C@@H]1NC(=O)[C@H](Cc2ccccc2)NC(=O)[C@@H](N)CSSC[C@@H](C(=O)N2CCC[C@H]2C(=O)N[C@@H](CCNC(=O)[C@@H](N)CCCCNC(=O)CC[C@H](NC(=O)[C@H](CCCNC(=N)N)NC(=O)[C@@H]2CCCN2C(=O)[C@H](CCCNC(N)=O)NC(=O)[C@H](CC(N)=O)NC(=O)[C@H](CCC(N)=O)NC(=O)[C@H](Cc2ccccc2)NC(=O)[C@@H](Cc2ccc(OC)cc2)NC(=O)Cc2ccccc2)C(N)=O)C(=O)NCC(N)=O)NC(=O)[C@H](CC(N)=O)NC(=O)[C@H](CCC(N)=O)NC1=O [Compound 44] (I: H-CFIQNCP[Dab]G-NH2 / II: PhAc-[dY](Me)FQN[Cit]PR[isoGln][εLys]; disulfide I:1-I:6; amide I:8-II:C),2 nM,40%
CC[C@H](C)[C@@H]1NC(=O)[C@H](Cc2ccccc2)NC(=O)[C@@H](N)CSSC[C@@H](C(=O)N2CCC[C@H]2C(=O)N[C@@H](CCCNCCCCCNC(=O)CC[C@H](NC(=O)[C@H](CCCNC(=N)N)NC(=O)[C@@H]2CCCN2C(=O)[C@H](CCCNC(N)=O)NC(=O)[C@H](CC(N)=O)NC(=O)[C@H](CCC(N)=O)NC(=O)[C@H](Cc2ccc(Cl)cc2)NC(=O)[C@@H](Cc2ccc(OC)cc2)NC(=O)Cc2ccccc2)C(N)=O)C(=O)NCC(N)=O)NC(=O)[C@H](CC(N)=O)NC(=O)[C@H](CCC(N)=O)NC1=O [Compound 45],0.8 nM,72%
CC[C@H](C)[C@@H]1NC(=O)[C@H](Cc2ccccc2)NC(=O)[C@@H](N)CSSC[C@@H](C(=O)N2CCC[C@H]2C(=O)N[C@@H](CCCNCCCCCNC(=O)CC[C@H](NC(=O)[C@H](CCCNC(=N)N)NC(=O)[C@@H]2CCCN2C(=O)[C@H](CCCNC(N)=O)NC(=O)[C@H](CC(N)=O)NC(=O)[C@H](CCC(N)=O)NC(=O)[C@H](CC(C)(C)C)NC(=O)[C@@H](Cc2ccc(OC)cc2)NC(=O)Cc2ccccc2)C(N)=O)C(=O)NCC(N)=O)NC(=O)[C@H](CC(N)=O)NC(=O)[C@H](CCC(N)=O)NC1=O [Compound 46],1.4 nM,62%
